Earlier results on one compound are cited in patent US8329231B2, “Method of preventing photo-aging with ashwagandha and Indian gooseberry” (Nutragenesis, LLC, priority 2008, dated 2012).

For this series the following is noted: values from the literature.

As to `O=C1O[C@H]([C@@H](O)CO)C(O)=C1O` [Vitamin C], the “HORAC (published, literature)” value was 0 units.
